Results published in patent US8034797B2, “Triazene compounds for the treatment of cancer” (Trin Therapeutics GmbH, priority 2007, dated 2011).
In brackets after ≈: the same amount, converted by molar mass. Counter-ions that a name gives are not always drawn.

Tests used:
Tumour-carrying mice = assay: Nephrological tolerability (kidney post-mortem and histology); assay type: in vivo
Protocol: A control group was treated only with the carrier according to a twice weekly treatment scheme.
When the 28-day treatment period had ended, a post-mortem was carried out on the mice. […] The kidneys of all the animals in the test groups were removed by operation, fixed in formalin according to standard methods, embedded in paraffin and processed for HE staining.

MAXF 401 = MAXF 401 breast tumour xenograft in nude mice; assay type: in vivo; conditions: for Mortality: deaths/animals
Protocol: All the tests were carried out using female nude mice under standard conditions for the keeping of animals with controlled illumination and temperature. The animals were given water and food as desired.
(§1) The increase in the volume of the individual tumours was measured using microcallipers, and the size of the tumour was calculated according to the formula a*b^2/2 (where a is the largest diameter of the tumour and b is the vertical axis). When the tumour volume had increased to 80-120 mm^3, the animals were allocated at random into test groups of in each case 6 animals.
The test compounds (in the form of sodium salts) were dissolved in a saline solution, and 5% Klucel (hydroxypropylcellulose) was added in order to dissolve all the test compounds in the same carrier. […] A volume of 10 ml/kg body weight was injected. Animals that received only the carrier served as control. The test compounds were treated according to the scheme of twice weekly administration over a period of […]. The tumour volume and the body weight were checked twice weekly, and the relative tumour volumes were calculated as the ratio of tumour size to body weight.
On the basis of the relative tumour volumes of the animals treated with the test compounds compared with the tumour volumes of the controls treated only with the carrier, the T/C values were calculated and were used as the index of anti-tumour activity.
Subcutaneous implantation of the tumour and the determination of the tumour volume were carried out as described hereinbefore. The above-mentioned salts of the test substance were administered by ip injection twice weekly in the mentioned doses in the form of an aqueous solution, over a period of 4 weeks. […]
Subcutaneous implantation of the tumour and the determination of tumour volumes were carried out as described hereinbefore. The test substance was administered by ip injection twice weekly in the mentioned doses in the form of the sodium salt as an aqueous solution, over a period of 4 weeks.

Solubility in water = assay type: physicochemical; conditions: for solubility: water
MEXF 462 = MEXF 462 melanoma xenograft model; assay type: in vivo, nude mice; conditions: for outcome of treatment: equimolar doses ip twice weekly over 4 weeks
Protocol: as §1, with “Breast tumours (MAXF 401) were implanted subcutaneously into the rear members of the mice aged 10 weeks. The” for “The”, “animals. […]” for “animals.”
The anti-tumour activity of the compounds was determined in the MEXF 462 xenograft tumour model in the nude mouse. Subcutaneous implantation of the tumour and the determination of tumour volumes were carried out as described hereinbefore. Groups of in each case 8 animals were used.
Equimolar amounts of the compound of Example 8 were administered ip twice weekly in the form of a 5% DMSO solution over the mentioned period.
The progression over time of the anti-tumour action, expressed in % of the tumour volume at the beginning of the test, over the period of therapy is shown in Table 3.

Solubility in DMSO = assay type: physicochemical; conditions: organic solvent or mixture, room temperature
[1] = kidney histology after 28-day twice weekly ip treatment, equimolar to 450 mg of stock composition, affected/animals
[2] = sodium salts ip, equimolar to 350 mg/kg of comparison compound, twice weekly over 5 weeks, 100% = no activity
[3] = sodium salts ip, equimolar to 350 mg/kg of comparison compound, twice weekly over 5 weeks
[4] = room temperature, read-out: solubility in water at room temperature

For CN(C)N=Nc1ccc(C(=O)c2ccc(OCC(=O)[O-])cc2)cc1.[Na+] [Ex. 30 of DE 1793115A], which “macroscopic findings of the kidneys at post-mortem” value (Tumour-carrying mice; after 28-day treatment period) is on record?
Its value is “macroscopic changes (swelling, local discolouration) of the kidneys”.

What about the renal histology finding (Tumour-carrying mice; after 28-day treatment period) of the same molecule?
Its renal histology finding is “Marked focal tubular necrosis of the kidneys”.

What about the Acute single-cell necrosis (Tumour-carrying mice; [1]) of the same molecule?
Its Acute single-cell necrosis is 4/9.

What about the Focal tubular necrosis (Tumour-carrying mice; [1]) of the same molecule?
The Focal tubular necrosis was 3/9.

What about the “reduction in the tumour volume development” value (MAXF 401; 350 mg/kg ip) of the same molecule?
Its value is 50%.

What about the T/C value (MAXF 401; [2]) of the same molecule?
The T/C value was 48.5%.

What about the Mortality (MAXF 401; [3]) of the same molecule?
The Mortality was 2/6.

With COC(=O)CNC(=O)CCOc1ccc(C(=O)c2ccc(/N=N/N(C)C)cc2)cc1 [Example 1] as the molecule, how does the melting point read?
Its melting point is 104 to 105 °C.

Which results are given for CN(C)/N=N/c1ccc(C(=O)c2ccc(OCCC(=O)NCC(=O)O)cc2)cc1 [Example 2, {3-[4(4-[(1E)-3,3-dimethyl-1-triazenyl]-benzoyl)-phenoxyl]propionylamino} acetic acid]?
T/C value (MAXF 401; [2]): 3.4%; Mortality (MAXF 401; [3]): 0/6

With CN(C)/N=N/c1ccc(C(=O)c2ccc(OCC(=O)NCC(=O)O)cc2)cc1 [Example 4, {2-[4-(4-[(1E)-3,3-dimethyl-1-triazenyl]-benzoyl)-phenoxy]-acetylamino}acetic acid] as the molecule, how does the T/C value (MAXF 401; [2]) read?
The T/C value was 12.6%.

What about the Mortality (MAXF 401; [3]) of the same molecule?
Its Mortality is 0/6.

Which results are given for CN(C)/N=N/c1ccc(C(=O)c2ccc(OCC(=O)NCC(=O)O)cc2)cc1 [Example 4a]?
T/C value (MAXF 401; 400 mg/kg sodium salt ip twice weekly, after 4 weeks' therapy): 12; remission (MAXF 401; 500 mg/kg sodium salt ip twice weekly, within 3 weeks of treatment): complete remission; salting-out effect in 0.9% NaCl (Solubility in water; 0.9% NaCl): pronounced salting-out effect; solubility in water at 25° C. (Solubility in water; 25° C.): about 4 g/litre; solubility in water at 25° C. (Solubility in water; 25° C.; listed as Example 4a)): 4 mg/mL (≈ 10.4 mM)

Which “tumour volume in % of the tumour volume at the beginning of the test, Mean” value (from here on “tumour volume in % of the tumour volume”) (MEXF 462; day 0, 350 mg/kg ip twice weekly) does the source give for CN(C)/N=N/c1ccc(C(=O)c2ccc(OCCC(=O)NC(CCC(N)=O)C(=O)O)cc2)cc1 (centres unmarked) [Example 7, 4-carbamoyl-2-{3-[4-(4-[(1E)-3,3-dimethyl-1-triazenyl]-benzoyl)-phenoxy]-propionylamino}-butanoic acid sodium salt] here?
The value was 100%.

And the “tumour volume in % of the tumour volume” value (MEXF 462; day 3, 350 mg/kg ip twice weekly)?
The value was 278%.

And the “tumour volume in % of the tumour volume” value (MEXF 462; day 7, 350 mg/kg ip twice weekly)?
Its value is 172%.

And the “tumour volume in % of the tumour volume” value (MEXF 462; day 11, 350 mg/kg ip twice weekly)?
Its value is 73%.

What about the “tumour volume in % of the tumour volume” value (MEXF 462; day 14, 350 mg/kg ip twice weekly) of the same molecule?
The value was 49%.

What about the “tumour volume in % of the tumour volume” value (MEXF 462; day 18, 350 mg/kg ip twice weekly) of the same molecule?
The value was 24%.

What about the “tumour volume in % of the tumour volume” value (MEXF 462; day 21, 350 mg/kg ip twice weekly) of the same molecule?
Its value is 6%.

And the “tumour volume in % of the tumour volume” value (MEXF 462; day 25, 350 mg/kg ip twice weekly)?
Its value is 2%.

What about the “tumour volume in % of the tumour volume” value (MEXF 462; day 28, 350 mg/kg ip twice weekly) of the same molecule?
The value was 0.3%.

What about the outcome of treatment (MEXF 462) of the same molecule?
Its outcome of treatment is “complete remission”.

What about the solubility (Solubility in water; 25 °C, 25° C., read-out: solubility in water at 25° C.) of the same molecule?
The solubility was about 400 mg/mL.

Which “tumour volume in % of the tumour volume” value (MEXF 462; day 0, 285 mg/kg ip twice weekly, 5% DMSO solution) does the source give for CN(C)/N=N/c1ccc(C(=O)c2ccc(OCCC(=O)NCC(N)=O)cc2)cc1 [Example 8] here?
Its value is 100%.

And the “tumour volume in % of the tumour volume” value (MEXF 462; day 3, 285 mg/kg ip twice weekly, 5% DMSO solution)?
Its value is 293%.

And the “tumour volume in % of the tumour volume” value (MEXF 462; day 7, 285 mg/kg ip twice weekly, 5% DMSO solution)?
The value was 369%.

What about the “tumour volume in % of the tumour volume” value (MEXF 462; day 11, 285 mg/kg ip twice weekly, 5% DMSO solution) of the same molecule?
The value was 174%.

And the “tumour volume in % of the tumour volume” value (MEXF 462; day 14, 285 mg/kg ip twice weekly, 5% DMSO solution)?
Its value is 134%.

What about the “tumour volume in % of the tumour volume” value (MEXF 462; day 18, 285 mg/kg ip twice weekly, 5% DMSO solution) of the same molecule?
The value was 107%.

What about the “tumour volume in % of the tumour volume” value (MEXF 462; day 21, 285 mg/kg ip twice weekly, 5% DMSO solution) of the same molecule?
Its value is 151%.

And the “tumour volume in % of the tumour volume” value (MEXF 462; day 25, 285 mg/kg ip twice weekly, 5% DMSO solution)?
Its value is 172%.

What about the “tumour volume in % of the tumour volume” value (MEXF 462; day 28, 285 mg/kg ip twice weekly, 5% DMSO solution) of the same molecule?
Its value is 271%.

And the outcome of treatment (MEXF 462)?
The outcome of treatment was “pronounced slowing down of tumour growth”.

And the solubility (Solubility in DMSO)?
The solubility was 833 mg/mL (≈ 2100 mM).

With CN(C)/N=N/c1ccc(C(=O)c2ccc(OCCC(=O)NCCS(=O)(=O)[O-])cc2)cc1.[Na+] [Example 9] as the molecule, how does the solubility (Solubility in water; [4]) read?
The solubility was 666 mg/mL.

Which solubility (Solubility in water; recrystallisation from water, read-out: Solubility (converted)) does the source give for CN(C)N=Nc1ccc(C(=O)c2ccc(OCC(=O)[O-])cc2)cc1.[Na+] [Preparation 1] here?
Its solubility is 40 mg/mL.

Which remission (MAXF 401; TRIS salt ip twice weekly, equimolar doses of 360, 400 and 500 mg/kg of the sodium salt, all doses) does the source give for CN(C)/N=N/c1ccc(C(=O)c2ccc(OCC(=O)NCC(=O)O)cc2)cc1 [TRIS salt] here?
Its remission is “complete remission”.

And the “solubility in water at 25° C.” value (Solubility in water; 25° C.)?
Its value is “about 250 g/litre”.

And the solubility (Solubility in water; [4])?
The solubility was 250 mg/mL.
